Measured values from US20260107938A1, “HERBICIDE/SAFENER COMBINATION BASED ON SAFENERS FROM THE CLASS OF SUBSTITUTED [(1,5- DIPHENYL-1H-1,2,4-TRIAZOL-3-YL)OXY]ACETIC ACIDS AND THEIR SALTS” (BAYER AKTIENGESELLSCHAFT, priority 2022, published 2026).

Tested on: summer wheat (TRZAS; cv. Triso)
Experiment: Greenhouse post-emergence trial: reduction in herbicide damage to summer wheat by safener
Format: in vivo
Design: key to Reduction in damage by safener (difference): difference in visual damage, % points (0-100% scale vs untreated)
Settings: 21 days after application
Description: Effect of selective herbicide/safener combinations of the invention using the example of reduction in damage to summer wheat (TRZAS):
The seeds of the crop plants to be treated were laid out in soil in plastic pots (diameter ˜8 cm), covered with soil and grown in a greenhouse under good conditions for germination and growth. The trial plants were treated at the early leaf stage (BBCH12).
For this purpose, the herbicides and safeners used were formulated as wettable powders (WP), mixed in accordance with the dose specified in each case, and sprayed onto the above-ground parts of the plants as an aqueous suspension at a water application rate corresponding to 300 l/ha with addition of wetting agent (Mero, 1.5 l/ha).
The dose of the respective herbicides was chosen here such that it causes visually apparent damage (min. 30%, max. 70%) compared to untreated crop plants at the evaluation time on a control group of crop plants without safener treatment that were included in the same trial. After application, the plants were cultivated under good growth conditions in a greenhouse. 21 days after application, the herbicide damage was assessed visually. The damage was assessed visually on a scale of 0-100% by comparison with untreated control plants, and averaged over 2 repeats per treatment.
0%=no noticeable effect compared to the untreated plant 20%=the treated plant population has 20% damage compared to the untreated control population (e.g. growth height, leaf damage, etc.)
100%=treated plants completely damaged/killed.
The safeners were each used at an application rate of 80 g/ha.

[1] = herbicide B19 100 g a.i./ha + safener 80 g/ha
[2] = herbicide B110 50 g a.i./ha + safener 80 g/ha
[3] = herbicide B122 50 g a.i./ha + safener 80 g/ha
[4] = herbicide B123 50 g a.i./ha + safener 80 g/ha

Compound | Damage to the plant on application of herbicide + safener [1] | Reduction in damage by safener (difference) [1] | Reduction in damage by safener (in %) [1] | Damage to the plant on application of herbicide + safener [2] | Reduction in damage by safener (difference) [2] | Reduction in damage by safener (in %) [2] | Damage to the plant on application of herbicide + safener [3] | Reduction in damage by safener (difference) [3] | Reduction in damage by safener (in %) [3] | Damage to the plant on application of herbicide + safener [4] | Reduction in damage by safener (difference) [4] | Reduction in damage by safener (in %) [4]
COC(=O)COc1nc(-c2ccc(Cl)cc2F)n(-c2ccc(Cl)cc2F)n1 [Compound A1, methyl {[1,5-bis(4-chloro-2-fluorophenyl)-1H-1,2,4-triazol-3-yl]oxy}acetate] | 0% | 30 | 100% | 0% | 70 | 100% | 0% | 55 | 100% | 10% | 60 | 86%
COC(=O)COc1nc(-c2ccc(F)cc2F)n(-c2ccc(Cl)cc2F)n1 [Compound A5, methyl {[1-(4-chloro-2-fluorophenyl)-5-(2,4-difluorophenyl)-1H-1,2,4-triazol-3-yl]oxy}acetate] | 0% | 30 | 100% | 0% | 70 | 100% | 0% | 55 | 100% | 25% | 45 | 64%
